According to the PolyMetriX glass transition set:
± gives the standard deviation of the reports.

Molecule `*c1ccc(NC2CC(=O)N(c3ccc(-c4sc(-c5ccc(N6C(=O)CC(Nc7ccc(-c8nc(-c9ccc(/C=C/c%10ccc([N+](=O)[O-])cc%10)s9)[nH]c8*)cc7)C6=O)cc5)c(-c5ccccc5)c4-c4ccccc4)cc3)C2=O)cc1` (repeat unit) has a glass transition temperature of 304.00 °C.
For `*/C=[CH]/[Ge](/[CH]=C/[Si](*)(c1ccccc1)c1ccccc1)([c]1ccccc1)[c]1ccccc1` (repeat unit), the glass transition temperature was 28.00 °C.
With `*Nc1ccc(NC(=O)c2cc(NC(=O)c3ccncc3)cc(C(*)=O)c2)cc1` (repeat unit) the glass transition temperature was 327.00 °C.
`*/C(C#N)=C/c1cc(OCCCCCCCC)c(/C=C(\C#N)c2cc(OCCCCCCCC)c(*)cc2OC)cc1OC` (repeat unit) showed a glass transition temperature of 174.00 °C.
Molecule `*/C=C/c1ccc(*)c(OCc2cc(OCCC(C)CCCC(C)C)cc(OCC(CC)CCCC)c2)c1` (repeat unit) has a glass transition temperature of 227.00 °C.
`*c1ccc(NC(=O)c2cc(C(=O)Nc3ccc(-c4nnc(*)o4)cc3)cc(N3C(=O)c4ccccc4C3=O)c2)cc1` (repeat unit) gave a glass transition temperature of 327.00 °C.
Molecule `*c1ccc(C(=O)Oc2ccc(C(C)(C)c3ccc(OC(=O)c4ccc(N5C(=O)CC(SCCOCCSC6CC(=O)N(*)C6=O)C5=O)cc4)cc3)cc2)cc1` (repeat unit) has a glass transition temperature of 143.00 °C.
Work on `*c1ccc(-c2ccc(-c3ccc(-c4ccc(-c5cc(-c6ccccc6)c6cc(-c7ccc8nc(*)cc(-c9ccccc9)c8c7)ccc6n5)cc4)cc3)cc2)cc1` (repeat unit) yielded a glass transition temperature of 355.00 °C.
With `*Cc1ccc2nc(-c3cc(-c4nc5ccc(*)cc5c(=O)o4)cc(N4C(=O)c5ccccc5C4=O)c3)oc(=O)c2c1` (repeat unit) the glass transition temperature was 322.00 °C.
Molecule `*c1cc(-n2c(=O)c3cc4c(=O)n(*)c(=O)c4cc3c2=O)c(O)cc1O` (repeat unit) has a glass transition temperature of 362.00 °C.
`*CC1CCC(COC(=O)c2cccc(C(=O)O*)c2)CC1` (repeat unit) gave a glass transition temperature of 70.00 °C.
Molecule `*Oc1ccc(CC(NC(=O)CCc2ccc(OC(=O)COCC(*)=O)cc2)C(=O)OC)cc1` (repeat unit) has a glass transition temperature of 82.00 °C.
With `*OP(=O)(Oc1ccc(C)cc1)Oc1ccc(S(=O)(=O)c2ccc(*)cc2)cc1` (repeat unit) the glass transition temperature was 66.00 °C.
For `*C([2H])([2H])C(*)([2H])C([2H])([2H])[2H]` (repeat unit), the glass transition temperature was 0.00 °C.
`*/C=C(/*)CCCOc1ccc(OC(=O)c2ccc(OC)cc2)cc1` (repeat unit) showed a glass transition temperature of 20.00 °C.
Molecule `*Cc1ccc(CNC(=O)c2cc(C(=O)N*)cc(C(C)(C)C)c2)cc1` (repeat unit) has a glass transition temperature of 204.00 °C.
Molecule `*CCCCC(C)CCn1c(=O)c2cc3c(=O)n(*)c(=O)c3cc2c1=O` (repeat unit) has a glass transition temperature of 135.00 °C.
`*c1ccc(Oc2ccc(C(=O)c3ccc(Oc4ccc(-c5cc(*)[nH]n5)cc4)cc3)cc2)cc1` (repeat unit) gave a glass transition temperature of 229.00 °C.
Molecule `*Oc1ccc2cc(C(*)=O)ccc2c1` (repeat unit) has a glass transition temperature of 147.00 °C.
Molecule `*c1ccc(-c2ccc(-n3c(=O)c4cc5c(=O)n(*)c(=O)c5c(C(F)(F)F)c4c3=O)cc2C)c(C)c1` (repeat unit) has a glass transition temperature of 373.00 °C.
Molecule `*CCNC(=O)c1ccc([Si](CCCC)(CCCC)c2ccc(C(=O)NCCN(*)c3ccc(/C=C/c4ccc([N+](=O)[O-])cc4)cc3)cc2)cc1` (repeat unit) has a glass transition temperature of 115.00 °C.
With `*N(C)[Si](*)(C)C` (repeat unit) the glass transition temperature was -20.00 °C.
`*c1ccc2c(c1)C(=O)N(c1ccc(Oc3ccc(-c4ccc(Oc5ccc(N6C(=O)c7ccc(C(*)(C(F)(F)F)C(F)(F)F)cc7C6=O)cc5)cc4)cc3)cc1)C2=O` (repeat unit) showed a glass transition temperature of 288.00 °C.
For `*c1ccc(Oc2ccc(Oc3ccc(N4C(=O)c5ccc(-c6ccc7c(c6)C(=O)N(*)C7=O)cc5C4=O)cc3)cc2)cc1` (repeat unit), the glass transition temperature was 278.00 ± 14 °C.
With `*CC(*)c1ccc(Oc2ccccc2)cc1` (repeat unit) the glass transition temperature was 85.00 °C.
Work on `*Oc1ccc(C(C)(C)c2ccc(OC(=O)OCCN(CCOC(*)=O)c3ccc(OC)cc3)cc2)cc1` (repeat unit) yielded a glass transition temperature of 60.00 °C.
`*c1ccc(Sc2cc3c(cc2Sc2ccc(N4C(=O)C5C6C=CC(C7C(=O)N(*)C(=O)C67)C5C4=O)cc2)C(=O)N(c2ccc(CC)cc2)C3=O)cc1` (repeat unit) gave a glass transition temperature of 320.00 °C.
`*CC(OCC)C(C(=O)OC)C(*)C(=O)OC` (repeat unit) gave a glass transition temperature of 50.00 °C.
`*CC(*)C(=O)OC(C)(C)C` (repeat unit) [Poly(t-butyl acrylate)] showed a glass transition temperature of 41 ± 0.9 °C.
For `*Oc1ccc(C(C)(C)c2ccc(OC(=O)c3ccc([Si](C)(C)c4ccc(C(*)=O)cc4)cc3)cc2)cc1` (repeat unit), the glass transition temperature was 180.00 °C.
Molecule `*Oc1ccc(S(=O)(=O)c2ccc(-c3ccc(S(=O)(=O)c4ccc(Oc5ccc(-c6ccc(-c7ccc(*)cc7)cc6)cc5)cc4)cc3)cc2)cc1` (repeat unit) has a glass transition temperature of 263.00 °C.
In the case of `*CC(*)C(=O)OCCCCCCC` (repeat unit), the glass transition temperature is reported as -60.00 °C.
